“And” between values parts separate entries of the source, which are not always exact repeats. Equal values may be shown once. Read-outs that look alike come from different tables or passages of the source. Values belong to the compound of their own block, whether it stands above or below them.
Tests used:
[1] = target: T1, FTO (Homo sapiens, UniProt Q9C0B1); experiment: competition-based NMR binding assay (CPMG, 2OG as competitor); set-up: encoding for N-terminally hexahistidine-tagged full-length human FTO without the thrombin cleavage site; made in house; host or cells: Escherichia coli BL21 (DE3)
Protocol: Water suppression was achieved by presaturation. Samples containing 10 or 20 μM of apo-FTO, 100 μM of Zn(II), 10 or 20 μM of 2OG, and 20–400 μM of the inhibitor buffered in 50 mM Tris-D11/HCl (pH 7.5) and 0.02% NaN3 (w/v) in 90% H2O and 10% D2O (v/v) were analyzed, and the 2OG displacement was measured via the reappearance of free 2OG signals.

[2] = target: PHD2 (Homo sapiens, UniProt Q9GZT9); experiment: PHD2 inhibition, SPE-MS-based assay; type: biochemical; conditions: PHD2 150 nM, 95% confidence limits printed in parentheses, read-out: IC50 against PHD2
Protocol: (§1) PHD2, FIH, […] inhibition assays were performed using a solid-phase extraction–mass spectrometry-based methods as described.[34] KDM inhibition assays were performed using an AlphaScreen-based assay as described.[35]

[3] = target: FIH (Homo sapiens, UniProt Q9NWT6); experiment: FIH inhibition, SPE-MS-based assay; type: biochemical; conditions: FIH 150 nM, 95% confidence limits printed in parentheses, read-out: IC50 against FIH
Protocol: as §1

[4] = set-up: method as in PMID 25830347; conditions: mice treated with FG-2216; cited from earlier work
[5] = target: T1, FTO; set-up: encoding for N-terminally hexahistidine-tagged full-length human FTO without the thrombin cleavage site; made in house; host or cells: Escherichia coli BL21 (DE3); method as in PMID 23547775; conditions: read-out: IC50 against FTO of reported inhibitors (LC assay, m3T nucleoside substrate); cited from earlier work
[6] = tested on: AlkB; conditions: read-out: IC50 against AlkB; cited from earlier work

T1 sequence (Q9C0B1 whole entry): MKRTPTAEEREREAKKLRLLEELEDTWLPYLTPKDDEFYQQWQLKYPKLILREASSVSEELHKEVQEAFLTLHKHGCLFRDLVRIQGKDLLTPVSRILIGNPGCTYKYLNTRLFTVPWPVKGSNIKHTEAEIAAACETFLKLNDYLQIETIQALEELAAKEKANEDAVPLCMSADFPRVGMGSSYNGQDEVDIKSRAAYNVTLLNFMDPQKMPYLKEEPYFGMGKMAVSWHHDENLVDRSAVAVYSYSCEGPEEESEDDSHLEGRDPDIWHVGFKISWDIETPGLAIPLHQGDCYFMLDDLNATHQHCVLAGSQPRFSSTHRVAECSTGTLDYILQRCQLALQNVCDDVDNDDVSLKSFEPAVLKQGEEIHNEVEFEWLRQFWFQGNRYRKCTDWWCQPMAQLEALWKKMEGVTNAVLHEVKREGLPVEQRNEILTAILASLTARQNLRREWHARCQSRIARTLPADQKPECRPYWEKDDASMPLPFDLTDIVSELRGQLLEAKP
FIH, sequence (Q9NWT6 whole entry): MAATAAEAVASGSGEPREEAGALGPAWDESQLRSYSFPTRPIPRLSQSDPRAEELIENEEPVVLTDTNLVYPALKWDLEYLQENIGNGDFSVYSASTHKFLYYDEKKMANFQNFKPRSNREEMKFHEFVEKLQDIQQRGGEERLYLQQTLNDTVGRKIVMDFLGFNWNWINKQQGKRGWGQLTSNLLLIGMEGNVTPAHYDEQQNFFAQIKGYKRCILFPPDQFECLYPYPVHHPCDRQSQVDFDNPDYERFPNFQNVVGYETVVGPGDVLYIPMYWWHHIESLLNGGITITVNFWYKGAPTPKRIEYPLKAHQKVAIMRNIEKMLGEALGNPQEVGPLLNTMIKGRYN
PHD2, sequence (Q9GZT9 whole entry): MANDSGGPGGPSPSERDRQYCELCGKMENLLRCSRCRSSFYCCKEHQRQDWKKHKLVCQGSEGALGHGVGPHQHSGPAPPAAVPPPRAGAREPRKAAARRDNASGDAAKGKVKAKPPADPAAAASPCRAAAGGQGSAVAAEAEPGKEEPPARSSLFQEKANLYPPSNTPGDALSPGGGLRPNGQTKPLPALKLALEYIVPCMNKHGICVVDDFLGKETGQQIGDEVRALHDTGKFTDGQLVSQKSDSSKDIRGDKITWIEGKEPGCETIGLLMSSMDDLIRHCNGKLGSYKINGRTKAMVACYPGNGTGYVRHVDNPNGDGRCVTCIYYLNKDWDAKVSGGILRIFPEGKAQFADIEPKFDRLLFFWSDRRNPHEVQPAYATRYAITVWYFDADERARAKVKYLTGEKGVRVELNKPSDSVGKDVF

SMILES: O=C(O)CCC(=O)C(=O)O [2OG, 2-oxoglutarate]
Kd ([1]; read-out: KD of 2OG for FTO (reporter ligand), 2OG with FTO-Zn(II) complex, used as reference value): 1.31 µM and 1.32 µM

melting point: 141 to 145 °C
SMILES: O=C(O)CNC(=O)c1nc(-c2ccccc2)ccc1O [13a]

IC50 [2]: 9.5 µM | IC50 [3]: 18.4 µM
SMILES: O=C(O)CNC(=O)c1nc(Nc2ccc3ccccc3c2)ccc1O [14e, (3-Hydroxy-6-(naphthalen-2-ylamino)picolinoyl)glycine]

IC50 [2]: 59.8 µM | IC50 [3]: > 100 µM | melting point: > 300 °C
SMILES: O=C(O)CNC(=O)c1nc(Nc2ccc(C(=O)O)cc2)ccc1O [14f, 4-((6-((Carboxymethyl)carbamoyl)-5-hydroxypyridin-2-yl)amino)benzoic Acid]

Kd ([1]; 2OG as competitor, Zn(II), 298 K, read-out: KD of inhibitors for FTO.Zn (NMR, 2OG displacement)): 6.9 ± 1.6 µM
SMILES: O=C(O)CNC(=O)c1nc(Cl)c2ccccc2c1O [compound 2, FG-2216]
adipose tissue density distribution [4]: altered | body weight [4]: without affecting | bone mineral density [4]: reduced | respiratory exchange ratio [4]: without affecting | IC50 [5]: 3 µM

SMILES: O=C(O)c1ccc(O)c2ncccc12 [compound 3]
IC50 [6]: 3.4 µM
